Molecules are shown by their SMILES.

Results on one molecule are retold here after patent US20250281607A1, “MEDICAMENT FOR TREATMENT AND/OR PREVENTION OF CANCER” (TORAY INDUSTRIES, INC., priority 2021, published 2025).

One data set relates to melanoma cell line A375. The data set can be described thus: THP-1-mediated phagocytic activity against A375 (Example 2). In kind it is cell-based, human. Particulars: cells cultured 2 days with drug at 50 nM, then anti-CAPRIN-1 humanized antibody #1 5 μg/mL, FIG. 1. The protocol: (§1) Specifically, in each combination test group (a trametinib combination test group, a fluorouracil combination test group and an irinotecan combination test group), the indicated drug used in combination was applied to human cancer cells, and then the cancer cells were cocultured with human monocytic cells (THP-1) in the presence of the anti-CAPRIN-1 antibody, and the antibody-mediated phagocytic activity against the cancer cells by THP-1 was evaluated. The human-derived cancer cells used were melanoma cell line A375 (used only in the trametinib combination test group), colon cancer cell line HCT116, prostate cancer cell line DU145 (used only in the trametinib combination test group), and lung cancer cell line A549 (used only in the trametinib combination test group). […]
(§2) Each cancer cell line after the culture was dissociated with TrypLE Express (Thermo), and the cancer cells were stained by the addition of calcein-AM at a final concentration of 0.02 μg/mL and incubation at 37° C. for 30 minutes. […] Further, dead cells were stained with propidium iodide (PI) (final concentration: 0.1 μg/mL), followed by the measurement of fluorescence from the cells by flow cytometry. […] Thus, the phagocytic activity in this evaluation system was calculated as the ratio (%) of APC-positive/calcein-AM-positive cells to the whole calcein-AM-positive population.

Data set [1] has as its system colon cancer cell line HCT116. The data set can be described thus: THP-1-mediated phagocytic activity against HCT116 (Example 2). In kind it is cell-based, human. Particulars: cells cultured 2 days with drug at 50 nM, then anti-CAPRIN-1 humanized antibody #1 5 μg/mL, FIG. 1, 2. On the procedure:
as §1, with “group). On a 6-well plate, the human-derived cancer cells were cultured for 2 days in the presence of trametinib for the trametinib combination test group, and cultured for 2 days in the presence of the each drug used in combination for the fluorouracil combination test group and the irinotecan combination test group. The concentration of the drug used in combination was set to a concentration that decreased the proliferation rate of the cancer cells by about half at the completion of culture.” for “group).”
as §2

Data set [2] concerns prostate cancer cell line DU145. The experiment in a line: THP-1-mediated phagocytic activity against DU145 (Example 2). The format is cell-based, human. Particulars: cells cultured 2 days with drug at 250 nM, then anti-CAPRIN-1 humanized antibody #1 5 μg/mL, FIG. 1. The protocol:
as §1, §2

Data set [3] concerns lung cancer cell line A549. The experiment in a line: THP-1-mediated phagocytic activity against A549 (Example 2). The format is cell-based, human. Particulars: cells cultured 2 days with drug at 250 nM, then anti-CAPRIN-1 humanized antibody #1 5 μg/mL, FIG. 1. The protocol: as §1, §2
For data set [4] the following is noted: trametinib in itself (therefore also used as DMSO solvate); cited from earlier work.

As for `CC(=O)Nc1cccc(-n2c(=O)n(C3CC3)c(=O)c3c(Nc4ccc(I)cc4F)n(C)c(=O)c(C)c32)c1` [trametinib, N-[3-[3-cyclopropyl-5-(2-fluoro-4-iodoanilino)-6,8-dimethyl-2,4,7-trioxopyrido[4,3-d]pyrimidin-1-yl]phenyl]acetamide], the “phagocytic activity against cancer cells” value in the data set with melanoma cell line A375 stood at 49%; in data set [1] it was 45%; in data set [2], 9%; in data set [3], 7%. In addition, the solubility result in data set [4] is listed as “poorly soluble”.
